Assay results as given in US20160376240A1, “6 Phenyl or 6 Pyridin 3 YL Indazole Derivatives and Methods of Use” (ABBVIE INC., priority 2014, published 2016).

How the values were obtained:
Assay type in all cases: biochemical
TrkA = biological target: T1, TrkA (Homo sapiens, UniProt P04629); assay: TrkA kinase inhibition, HTRF assay; settings: LCK peptide substrate 125 nM, TrkA 2-10 nM pre-incubated with ATP 200 μM
T1 construct: purchased Invitrogen PV3144
In short: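 TrkA (2-10 nM) preactivated 20 min with 200 μM ATP in HEPES pH 7.4 with Mg2+/Mn2+, then compound for 10 min, then 125 nM biotinylated LCK-peptide for 1 h at ambient temperature. HTRF 665/620 ratio read; IC50 fitted from initial-rate percent inhibition.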

TrkB = biological target: T2, TrkB (Homo sapiens, UniProt Q16620); assay: TrkB kinase inhibition, HTRF assay; settings: LCK peptide substrate, assay ATP concentration targeted 5 μM
T2 construct: purchased Invitrogen PV3616
Protocol: (§1) TrkA, TrkB, and TrkC enzymes were obtained from Invitrogen (as catalog numbers PV3144, PV3616, and PV3617, respectively). The ability of a compound to inhibit the enzymatic activity of the TrkA, TrkB, and TrkC enzymes was determined in separate assays. Enzyme activity was measured in an HTRF® (homogeneous time resolved fluorescence) assay, which detects enzymatic phosphorylation of a biotinylated synthetic peptide substrate (an LCK peptide analog, biotin-ahx-GAEEEIYAAFFA, from Genemed Synthesis). Phosphorylation is assessed by HTRF® in the presence of an anti-phosphotyrosine antibody conjugated to Eu^3+ cryptate (Cisbio) as donor fluorophore, and streptavidin conjugated to allophycocyanin (ProZyme) as acceptor fluorophore. The HTRF® signal was detected at two different wavelengths (620 nm and 665 nm) which were used to calculate the fluorescence ratio.
(§2) Each enzyme was titrated to a concentration optimized to ensure accurate measurement of the initial reaction rate. To allow the Trk enzymes to undergo activation and auto-phosphorylation, a 20 minute pre-incubation with ATP was carried out (at twice the final targeted enzyme and ATP concentration) prior to addition of test compound and the peptide substrate.
(§3) TrkA in vitro assays were performed by pre-incubating TrkA (2-10 nM) with ATP (200 μM) for 20 minutes at ambient temperature in 50 mM HEPES pH 7.4, 10 mM MgCl2, 2 mM MnCl2, 100 μM Na3VO4, 1 mM dithiothreitol, 0.01% BSA (bovine serum albumin). Then, to the activated Trk enzyme mixture was added the test compound in 2% dimethyl sulfoxide. After 10 minutes, the peptide substrate (125 nM) was added. After 1 hour, enzyme reactions were terminated by addition of equal reaction volumes of detection/stop reagent (containing 0.2 μg/mL anti-phosphotyrosine monoclonal antibody labeled with europium from Cisbio (catalog# PT66-K), and 4 μg/mL PhycoLink® Streptavidin-Allophycocyanin conjugate from ProZyme (catalog# PJ25S) in 60 mM EDTA in 40 mM HEPES pH 7.4, 480 mM KF, 0.01% Tween® 20 and 0.1% BSA bovine serum albumin) Reaction plates were stored at 4° C. overnight before reading the fluorescence ratio signal on a PerkinElmer EnVision™ fluorescence detector. Individual reaction wells were stopped at time points to obtain reaction rates. The test inhibitor compounds were assayed in duplicate, at half-log serial dilutions over a range of concentrations (e.g. starting at 50 μM or 5 μM as the high compound concentration). The percent Trk enzyme inhibition was calculated from the initial rates of the inhibited reactions relative to the uninhibited control. IC50 values were calculated by fitting the inhibition percent to the concentration of inhibitor [I] in the assay in equation 1 below, to solve for the IC50.
(§4) Inhibition %=100[I]/([I]+[IC50]) equation 1
(§5) The TrkB and TrkC in vitro assays were performed as described above, except that for these enzymes the assay ATP concentration targeted was 5 μM.

TrkC = biological target: T3, TrkC (Homo sapiens, UniProt Q16288); assay: TrkC kinase inhibition, HTRF assay; settings: LCK peptide substrate, assay ATP concentration targeted 5 μM
T3 construct: purchased Invitrogen PV3617
Protocol: as §1, §2, §3, §4, §5

T2 sequence (Q16620 32-822): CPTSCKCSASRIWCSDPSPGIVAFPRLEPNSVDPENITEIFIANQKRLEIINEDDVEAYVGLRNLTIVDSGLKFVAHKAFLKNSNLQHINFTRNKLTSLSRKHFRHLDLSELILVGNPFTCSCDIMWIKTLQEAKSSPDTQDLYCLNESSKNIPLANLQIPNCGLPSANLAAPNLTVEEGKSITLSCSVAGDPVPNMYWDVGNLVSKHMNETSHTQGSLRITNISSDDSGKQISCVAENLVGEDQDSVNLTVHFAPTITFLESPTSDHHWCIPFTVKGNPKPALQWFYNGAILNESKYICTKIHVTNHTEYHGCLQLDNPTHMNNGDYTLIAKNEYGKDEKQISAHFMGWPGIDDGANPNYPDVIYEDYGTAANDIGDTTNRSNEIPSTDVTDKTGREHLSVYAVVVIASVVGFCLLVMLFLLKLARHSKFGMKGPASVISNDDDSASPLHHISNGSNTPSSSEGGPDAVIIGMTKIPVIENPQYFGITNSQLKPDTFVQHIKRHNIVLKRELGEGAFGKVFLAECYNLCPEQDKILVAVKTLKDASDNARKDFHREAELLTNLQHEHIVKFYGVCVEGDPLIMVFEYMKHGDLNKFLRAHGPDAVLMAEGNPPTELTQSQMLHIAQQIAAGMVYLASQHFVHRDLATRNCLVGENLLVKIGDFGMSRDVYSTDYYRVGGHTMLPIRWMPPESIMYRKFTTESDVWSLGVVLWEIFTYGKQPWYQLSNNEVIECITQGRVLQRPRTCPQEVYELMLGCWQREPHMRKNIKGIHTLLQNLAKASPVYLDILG
T3 sequence (Q16288 32-839): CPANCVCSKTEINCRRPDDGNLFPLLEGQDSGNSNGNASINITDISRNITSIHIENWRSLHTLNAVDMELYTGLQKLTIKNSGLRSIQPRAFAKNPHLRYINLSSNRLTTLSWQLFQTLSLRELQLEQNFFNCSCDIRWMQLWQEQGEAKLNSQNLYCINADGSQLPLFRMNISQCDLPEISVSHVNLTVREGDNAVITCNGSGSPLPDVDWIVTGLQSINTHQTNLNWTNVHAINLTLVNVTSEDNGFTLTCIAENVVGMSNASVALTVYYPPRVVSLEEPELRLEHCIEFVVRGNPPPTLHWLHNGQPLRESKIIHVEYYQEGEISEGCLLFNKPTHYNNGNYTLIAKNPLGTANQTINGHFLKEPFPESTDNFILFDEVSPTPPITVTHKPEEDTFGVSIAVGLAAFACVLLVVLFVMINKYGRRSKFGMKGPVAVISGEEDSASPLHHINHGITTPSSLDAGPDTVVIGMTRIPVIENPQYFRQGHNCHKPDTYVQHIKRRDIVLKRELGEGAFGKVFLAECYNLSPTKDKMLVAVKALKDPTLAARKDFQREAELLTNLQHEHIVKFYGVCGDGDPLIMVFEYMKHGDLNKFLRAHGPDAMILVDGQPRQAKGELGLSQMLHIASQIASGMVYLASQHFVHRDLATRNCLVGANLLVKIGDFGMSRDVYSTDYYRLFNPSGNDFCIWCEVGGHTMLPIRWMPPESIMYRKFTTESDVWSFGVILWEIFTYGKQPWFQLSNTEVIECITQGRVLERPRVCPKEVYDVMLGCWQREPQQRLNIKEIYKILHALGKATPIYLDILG
T1 sequence (P04629 33-796): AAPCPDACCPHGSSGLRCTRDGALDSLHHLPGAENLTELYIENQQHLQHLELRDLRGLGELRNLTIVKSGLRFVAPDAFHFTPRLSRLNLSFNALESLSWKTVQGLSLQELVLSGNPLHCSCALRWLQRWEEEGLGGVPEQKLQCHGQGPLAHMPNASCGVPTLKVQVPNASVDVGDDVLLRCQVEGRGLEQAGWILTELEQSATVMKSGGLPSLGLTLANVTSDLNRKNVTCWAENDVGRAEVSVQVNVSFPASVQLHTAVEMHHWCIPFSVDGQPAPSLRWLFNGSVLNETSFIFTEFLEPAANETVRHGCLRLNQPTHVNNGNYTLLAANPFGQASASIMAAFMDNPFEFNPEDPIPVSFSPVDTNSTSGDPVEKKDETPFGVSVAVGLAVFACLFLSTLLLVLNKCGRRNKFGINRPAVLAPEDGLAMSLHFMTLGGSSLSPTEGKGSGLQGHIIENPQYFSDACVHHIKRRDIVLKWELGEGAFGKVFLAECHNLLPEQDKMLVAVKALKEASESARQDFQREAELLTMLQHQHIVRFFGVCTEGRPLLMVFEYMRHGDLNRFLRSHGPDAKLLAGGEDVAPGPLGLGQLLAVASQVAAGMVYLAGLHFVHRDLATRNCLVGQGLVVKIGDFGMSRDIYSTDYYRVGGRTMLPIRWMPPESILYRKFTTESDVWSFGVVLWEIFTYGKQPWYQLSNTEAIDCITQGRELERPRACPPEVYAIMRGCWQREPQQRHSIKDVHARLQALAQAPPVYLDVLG

| SMILES | IC50 (TrkA) [nM] | IC50 (TrkB) [nM] | IC50 (TrkC) [nM] |
| --- | --- | --- | --- |
| CC(C)(C)OC(=O)N1CCN(c2cc(-c3cc(OC4CCCC4)c4c(N)n[nH]c4c3)ccc2C(N)=O)CC1 [Example 73, tert-butyl 4-{5-[3-amino-4-(cyclopentyloxy)-1H-indazol-6-yl]-2-carbamoylphenyl}piperazine-1-carboxylate] | 13.7 | 3.17 | 3.53 |
| NC(=O)c1ccc(-c2cc(OC3CCCC3)c3c(N)n[nH]c3c2)cc1N1CCN(c2ccccc2)CC1 [Example 71, 4-[3-amino-4-(cyclopentyloxy)-1H-indazol-6-yl]-2-(4-phenylpiperazin-1-yl)benzamide] | 4.92 | 1.5 | 1.67 |
| CNC(=O)c1ccc(-c2cc(OC(C)C(F)(F)F)c3c(N)n[nH]c3c2)cc1N1CCN(C2CC2)CC1 (stereo not drawn) [Example 34, 4-{3-amino-4-[(1,1,1-trifluoropropan-2-yl)oxy]-1H-indazol-6-yl}-2-(4-cyclopropylpiperazin-1-yl)-N-methylbenzamide] | 318 | 330 | 318 |
| COc1cncnc1N1CCN(c2cc(-c3cc(OC4CCOCC4)c4c(N)n[nH]c4c3)ccc2C(N)=O)CC1 [Example 6, 4-[3-amino-4-(tetrahydro-2H-pyran-4-yloxy)-1H-indazol-6-yl]-2-[4-(5-methoxypyrimidin-4-yl)piperazin-1-yl]benzamide] | 42.1 | 15 | 23.7 |
| NC(=O)c1ccc(-c2cc(OC3CCOCC3)c3c(N)n[nH]c3c2)cc1N1CCN(c2ccccc2)CC1 [Example 1, 4-[3-amino-4-(tetrahydro-2H-pyran-4-yloxy)-1H-indazol-6-yl]-2-(4-phenylpiperazin-1-yl)benzamide] | 2.66 | 0.786 | 1.03 |
| CNC(=O)c1ccc(-c2cc(O[C@@H](C)C(F)(F)F)c3c(N)n[nH]c3c2)cc1N1CCN(C2CCCCC2)CC1 [Example 47, 4-(3-amino-4-{[(2S)-1,1,1-trifluoropropan-2-yl]oxy}-1H-indazol-6-yl)-2-(4-cyclohexylpiperazin-1-yl)-N-methylbenzamide] | 232 | 268 | 300 |
| CC(C)N1CCN(c2cc(-c3cc(OC(C)C(F)(F)F)c4c(N)n[nH]c4c3)ccc2C(N)=O)CC1 (stereo not drawn) [Example 101, 4-{3-amino-4-[(1,1,1-trifluoropropan-2-yl)oxy]-1H-indazol-6-yl}-2-(4-isopropylpiperazin-1-yl)benzamide] | 377 | 317 | 305 |
| CNC(=O)c1ccc(-c2cc(OC(C)C)c3c(N)n[nH]c3c2)cc1N1CCN(C2CCCCC2)CC1 [Example 109, 4-(3-amino-4-isopropoxy-1H-indazol-6-yl)-2-(4-cyclohexylpiperazin-1-yl)-N-methylbenzamide] | 15.7 | 2.58 | 4.89 |
| NC(=O)c1ccc(-c2cc(OC3CCCC3)c3c(N)n[nH]c3c2)cc1N1CCN(c2ccc(F)cc2)CC1 [Example 72, 4-[3-amino-4-(cyclopentyloxy)-1H-indazol-6-yl]-2-[4-(4-fluorophenyl)piperazin-1-yl]benzamide] | 17.5 | 4.92 | 5.35 |
| CC(=O)N1CCN(c2cc(-c3cc(OC4CCCC4)c4c(N)n[nH]c4c3)ccc2C(N)=O)CC1 [Example 77, 2-(4-acetylpiperazin-1-yl)-4-[3-amino-4-(cyclopentyloxy)-1H-indazol-6-yl]benzamide] | 51.1 | 84.4 | 158 |
| CNC(=O)c1ccc(-c2cc(O[C@H](C)C(F)(F)F)c3c(N)n[nH]c3c2)cc1N1CCN(C2CCCCC2)CC1 [Example 56, 4-(3-amino-4-{[(2R)-1,1,1-trifluoropropan-2-yl]oxy}-1H-indazol-6-yl)-2-(4-cyclohexylpiperazin-1-yl)-N-methylbenzamide] | 80 | 27.8 | 37.1 |
